Among the data in patent US6239130A, “Phosphodiesterase 4-inhibiting diazepinoindolones” (Warner-Lambert Company, priority 1997, dated 2001) are IC50 values, retold here.

Broadly, the IC50 is the midpoint of a concentration-inhibition curve. Read a high IC50 as a need for much substance.

Structures can show the parent of a compound that is named as a salt. Some results are limits rather than exact numbers.

This assay deals with PDE4 enzyme of human origin. The experiment in a line: PDE4-inhibiting activity on an enzyme preparation obtained from the U937 cell line. The class given is biochemical. The protocol: In the case of the PDE4 enzymes, this value is compared with that of rolipram, a specific PDE4 inhibitor. […] Measurement of the enzyme activity of the different types of PDE, and especially of the PDE4 enzymes, is then carried out according to a method adapted from W. J. Thompson, ibidem.
`COc1cccc2nc(C)n(C3N=C(c4ccccc4)c4cc(C)cc5c4N(CC5)C3=O)c(=O)c12` (centres unmarked) [Example 6, 3-(5-methoxy-2-methyl-4-oxo-4H-quinazolin-3-yl)-9-methyl-1-phenyl-6,7-dihydro-3H-[1,4]diazepino[6,7,1-hi]indol-4-one] had a half-maximal inhibitory concentration (IC50) of 3020 nM.

Turning to `COc1ccc2c(=O)n(C3N=C(c4ccccc4)c4cc(C)cc5c4N(CC5)C3=O)c(C)nc2c1` (centres unmarked) [Example 6A, 3-(7-methoxy-2-methyl-4-oxo-4H-quinazolin-3-yl)-9-methyl-1-phenyl-6,7-dihydro-3H-[1,4]-diazepino[6,7,1-hi]indol-4-one], the half-inhibitory concentration (IC50) was 133 nM.

As for `COc1ccc2nc(C)n(C3N=C(c4ccccc4)c4cc(C)cc5c4N(CC5)C3=O)c(=O)c2c1` (centres unmarked) [Example 6B, 3-(6-methoxy-2-methyl-4-oxo-4H-quinazolin-3-yl)-9-methyl-1-phenyl-6,7-dihydro-3H-[1,4]-diazepino[6,7,1-hi]indol-4-one], the IC50 came to 1420 nM.

Turning to `Cc1cc2c3c(c1)C(c1ccccc1)=NC(n1c(C)nc4ccc(Br)cc4c1=O)C(=O)N3CC2` (centres unmarked) [Example 6C, 3-(6-bromo-2-methyl-4-oxo-4H-quinazolin-3-yl)-9-methyl-1-phenyl-6,7-dihydro-3H-[1,4]diazepino-[6,7,1-hi]indol-4-one], the half-maximal inhibitory concentration (IC50) was determined as 838 nM.

The compound `Cc1cc2c3c(c1)C(c1ccccc1)=NC(n1c(C)nc4cccc(CO)c4c1=O)C(=O)N3CC2` (centres unmarked) [Example 6D, 3-(5-hydroxymethyl-2-methyl-4-oxo-4H-quinazolin-3-yl)-9-methyl-1-phenyl-6,7-dibydro-3H-[1,4]-diazepino[6,7,1-hi]indol-4-one] gave a half-inhibitory concentration (IC50) of 372 nM.

`Cc1cc2c3c(c1)C(c1ccccc1)=NC(n1c(C)nc4cccc(C(=O)OC(C)(C)C)c4c1=O)C(=O)N3CC2` (centres unmarked) [Example 6E, tert-Butyl 2-methyl-3-(9-methyl-4-oxo-1-phenyl-3,4,6,7-tetrahydro-[1,4]diazepino[6,7,1-hi]indol-3-yl)-4-oxo-3,4-dihydroquinazoline-5-carboxylate] displayed a 50% inhibitory concentration (IC50) of over 100000 nM.

In the case of `Cc1cc2c3c(c1)C(c1ccccc1)=NC(n1c(C)nc4cccc(C(=O)O)c4c1=O)C(=O)N3CC2` (centres unmarked) [Example 6F, 2-methyl-3-(9-methyl-4-oxo-1-phenyl-3,4,6,7-tetrahydro[1,4]diazepino[6,7,1-hi]indol-3-yl)-4-oxo-3,4-dihydroquinazoline-5-carboxylic acid], the IC50 was over 100000 nM.

In turn, `COC(=O)c1ccc2c(=O)n(C3N=C(c4ccccc4)c4cc(C)cc5c4N(CC5)C3=O)c(C)nc2c1` (centres unmarked) [Example 7A, Methyl 2-methyl-3-(9-methyl-4-oxo-1-phenyl-3,4,6,7-tetrahydro-[1,4]diazepino[6,7,1-hi]indol-3-yl)-4-oxo-3,4-dihydroquinazoline-7-carboxylate] yielded an IC50 of 157 nM.

`Cc1cc2c3c(c1)C(c1ccccc1)=NC(n1c(C)nc4cc(C(=O)O)ccc4c1=O)C(=O)N3CC2` [Example 7C, Salt of 2-methyl-3-(9-methyl-4-oxo-1-phenyl-3,4,6,7-tetrahydro[1,4]diazepino[6,7,1-hi]indol-3-yl)-4-oxo-3,4-dihydroquin azoline-7-carboxylic acid with D-glucamine] showed a 50% inhibitory concentration (IC50) of 66 nM.

As for `Cc1cc2c3c(c1)C(c1ccccc1)=NC(n1c(C)nc4cc(C(N)=O)ccc4c1=O)C(=O)N3CC2` (centres unmarked) [Example 8, 2-methyl-3-(9-methyl-4-oxo-1-phenyl-3,4,6,7-tetrahydro-[1,4]diazepino[6,7,1-hi]indol-3-yl)-4-oxo-3,4-dihydroquinazoline-7-carboxamide], 50 nM corresponded to half-maximal inhibition (IC50).

The compound `Cc1cc2c3c(c1)C(c1ccccc1)=NC(n1c(C)nc4cc(-c5nnn[nH]5)ccc4c1=O)C(=O)N3CC2` (centres unmarked) [Example 8B] yielded a concentration for half-maximal inhibition (IC50) of 28 nM.

`CNC(=O)c1ccc2c(=O)n(C3N=C(c4ccccc4)c4cc(C)cc5c4N(CC5)C3=O)c(C)nc2c1` (centres unmarked) [Example 9, 2-methyl-3-(9-methyl-4-oxo-1-phenyl-3,4,6,7-tetrahydro-[1,4]diazepino[6,7,1-hi]indol-3-yl)-4-oxo-3,4-dihydroquinazoline-7-(N-methylcarboxamide)] yielded an IC50 of 63 nM.

`Cc1cc2c3c(c1)C(c1ccccc1)=NC(n1c(C)nc4cc(C(=O)N(C)C)ccc4c1=O)C(=O)N3CC2` (centres unmarked) [Example 9A, 2-methyl-3-(9-methyl-4-oxo-1-phenyl-3,4,6,7-tetrahydro[1,4]diazepino[6,7,1-hi]indol-3-yl)-4-oxo-3,4dihydroquinazoline-7-N-dimethylearboxamide] came in with a half-maximal inhibitory concentration (IC50) of 122 nM.

`Cc1cc2c3c(c1)C(c1ccccc1)=NC(n1c(C)nc4cc(C(=O)NCCN5CCOCC5)ccc4c1=O)C(=O)N3CC2` (centres unmarked) [Example 9B, 2-methyl-3-(9-methyl-4-oxo-1-phenyl-3,4,6,7-tetrahydro[1,4]diazepino[6,7,1-hi]indol-3-yl) 4-oxo-3,4-dihydroquinazoline-7-carboxylic acid (2-morpholin-4-yl-ethyl)amide]: half-maximal inhibition (IC50) required 95 nM.

The compound `Cc1cc2c3c(c1)C(c1ccccc1)=NC(n1c(C)nc4cc(C(=O)NCCCN5CCOCC5)ccc4c1=O)C(=O)N3CC2` (centres unmarked) [Example 9C] displayed an IC50 of 69 nM.

`Cc1cc2c3c(c1)C(c1ccccc1)=NC(n1c(C)nc4cc(C(=O)NCCN)ccc4c1=O)C(=O)N3CC2` (centres unmarked) [Example 9D, 2-methyl-3-(9-methyl-4-oxo-1-phenyl-3,4,6,7-tetrahydro[1,4]diazepino[6,7,1-hi]indol-3-yl)-4-oxo-3,4-dihydroquinazoline-7-(2-amino)ethylcarboxamide] showed an IC50 of 119 nM.

Compound `Cc1cc2c3c(c1)C(c1ccccc1)=NC(n1c(C)nc4cc(C(=O)N5CCN(CCO)CC5)ccc4c1=O)C(=O)N3CC2` (centres unmarked) [Example 9F, 3-{7-[4-(2-hydroxyethyl)piperazine-1-carbonyl]-2-methyl-4-oxo-4H-quinazolin-3-yl}-9-methyl-1-phenyl-6,7-dihydro-3H-[1,4]diazepino[6,7,1-hi]indol-4-one] returned an IC50 of 192 nM.

`Cc1cc2c3c(c1)C(c1ccccc1)=NC(n1c(C)nc4cc(C(=O)N5CCN(CCO)CC5)ccc4c1=O)C(=O)N3CC2` (centres unmarked) [Example 9G] yielded an IC50 of 137 nM.

As to `COC(=O)[C@H](CCCCN)NC(=O)c1ccc2c(=O)n(C3N=C(c4ccccc4)c4cc(C)cc5c4N(CC5)C3=O)c(C)nc2c1` (stereo partly drawn) [Example 9I, Methyl (2S)-6-amino-2-{[2-methyl-3-(9-methyl-4-oxo-1-phenyl-3,4,6,7-tetrahydro-[1,4]diazepino[6,7,1-hi]indol-3-yl)-4-oxo-3,4-dihydroquinazolin-7-carbonyl]amino}hexanoate], the IC50 is 119 nM.

`Cc1cc2c3c(c1)C(c1ccccc1)=NC(n1c(C)nc4cc(C(=O)OCCN5CCOCC5)ccc4c1=O)C(=O)N3CC2` (centres unmarked) [Example 10, 2-(4-morpholinyl)ethyl 2-methyl-3-(9-methyl-4-oxo-1-phenyl-3,4,6,7-tetrahydro-[1,4]diazepino-[6,7,1-hi]indol-3-yl)-4-oxo-3,4-dihydroquinazoline-7-carboxylate] yielded a 50% inhibitory concentration (IC50) of 183 nM.

`CC(=O)OCCOC(=O)c1ccc2c(=O)n(C3N=C(c4ccccc4)c4cc(C)cc5c4N(CC5)C3=O)c(C)nc2c1` (centres unmarked) [Example 10A, 2-acetoxyethyl 2-methyl-3-(9-methyl-4-oxo-1-phenyl-3,4,6,7-tetrahydro[1,4]diazepino[6,7,1-hi]indol-3-yl)-4-oxo-3,4dihydroquinazoline-7-carboxylate] returned a half-inhibitory concentration (IC50) of 108 nM.

The compound `COCCOC(=O)c1ccc2c(=O)n(C3N=C(c4ccccc4)c4cc(C)cc5c4N(CC5)C3=O)c(C)nc2c1` (centres unmarked) [Example 10B, 2-Methoxyethyl 2-methyl-3-(9-methyl-4-oxo-1-phenyl-3,4,6,7-tetrahydro[1,4]diazepino[6,7,1-hi]indol-3-yl)-4-oxo-3,4-dihydroquinazoline-7-carboxylate] had an IC50 of 155 nM.

`Cc1cc2c3c(c1)C(c1ccccc1)=NC(n1c(C)nc4cc(C(=O)OCCO)ccc4c1=O)C(=O)N3CC2` (centres unmarked) [Example 10C, 2-Hydroxyethyl 2-methyl-3-(9-methyl-4-oxo-1-phenyl-3,4,6,7-tetrahydro[1,4]diazepino[6,7,1-hi]indol-3-yl)-4-oxo-3,4-dihydroquinazoline-7-carboxylate] had an IC50 of 81 nM.

In turn, `Cc1cc2c3c(c1)C(c1ccccc1)=NC(n1c(C)nc4cc(C(=O)OC[C@@H](O)CO)ccc4c1=O)C(=O)N3CC2` (stereo partly drawn) [Example 10D, 1-(2S)-glyceryl 2-methyl-3-(9-methyl-4-oxo-1-phenyl-3,4,6,7-tetrahydro[1,4]diazepino[6,7,1-hi]indol-3-yl)-4-oxo-3,4-dihydroquinazoline-7-carboxylate] yielded a half-inhibitory concentration (IC50) of 42 nM.

Compound `Cc1cc2c3c(c1)C(c1ccccc1)=NC(n1c(C)nc4cc(C(=O)OCC(O)CN5CCOCC5)ccc4c1=O)C(=O)N3CC2` (centres unmarked) [Example 10E, 2-hydroxy-3-morpholin-4-ylpropyl 2-methyl-3-(9-methyl-4-oxo-1-phenyl-3,4,6,7-tetrahydro[1,4]diazepino[6,7,1-hi]indol-3-yl)-4-oxo-3,4-dihydroquinazoline-7-carboxylate] returned an IC50 of 75 nM.

As to `Cc1cc2c3c(c1)C(c1ccccc1)=NC(n1c(C)nc4cc(CO)ccc4c1=O)C(=O)N3CC2` (centres unmarked) [Example 11, 3-(7-hydroxymethyl-2-methyl-4-oxo-4H-quinazolin-3-yl)-9-methyl-1-phenyl-6,7-dihydro-3H-[1,4]diazepino[6,7,1-hi]indol-4-one], the IC50 was 79 nM.

As for `Cc1cc2c3c(c1)C(c1ccccc1)=N[C@@H](n1c(C)nc4cccc(F)c4c1=O)C(=O)N3CC2` [Example 12], the concentration for half-maximal inhibition (IC50) was found to be 88 nM.

Regarding `Cc1cc2c3c(c1)C(c1ccccc1)=NC(n1c(C)nc4cccc(Cl)c4c1=O)C(=O)N3CC2` (centres unmarked) [Example 13, 3-(5-chloro-2-methyl-4-oxo-4H-quinazolin-3-yl)-9-methyl-1-phenyl-6,7-dihydro-3H-[1,4]diazepino-[6,7,1-hi]indol-4-one], the 50% inhibitory concentration (IC50) was 83 nM.

Regarding `CCOC(=O)c1nc2ccccc2c(=O)n1C1N=C(c2ccccc2)c2cc(C)cc3c2N(CC3)C1=O` (centres unmarked) [Example 14, ethyl 3-(9-methyl-4-oxo-1-phenyl-3,4,6,7-tetrahydro-[1,4]diazepino[6,7,1-hi]indol-3-yl)-4-oxo-3,4-dihydroquinazoline-2-carboxylate], it took 310 nM to reach half-maximal inhibition (IC50).
